Values quoted from earlier work, collected in patent publication US8129131B2, “Pin1 as a marker for abnormal cell growth” (Beth Israel Deaconess Medical Center, priority 1999, dated 2012).

Tested on: Pin1 or its WW domain
Details: pre-incubation with various peptide concentrations before mitotic extracts; concentration-dependent

Pin1 or its WW domain, sequence (Q13526 1-39 limits assumed): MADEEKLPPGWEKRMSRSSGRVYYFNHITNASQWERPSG

Substance: WFYpSPRLKK [Pintide]
- phosphoprotein-binding activity of Pin1 or its WW domain: significantly reduced
